Laboratory results reported in patent US20260241046A1, “PROSTATE-SPECIFIC MEMBRANE ANTIGEN RECEPTOR-TARGETING RADIOPHARMACEUTICALS AND USES THEREOF” (Nuclidium AG, priority 2024, published 2026).

Experiments:
[1] = Storage of lyophilized precursor; type: physicochemical; details: lyophilized powder, kept at 25° C. for up to 14 days
[2] = tested on: CD-1 mice; assay: Extended single-dose toxicity study (GLP); type: in vivo
Procedure: (§1) The study was designed as an extended single-dose toxicity study in one rodent species and performed under GLP conditions. NODAGA-PSMA I&T toxicity was evaluated after intravenous administration on day 1 of the study, followed by an observation period of 2 weeks. 60 (30 males and 30 females) CD-1 mice were divided into one dose group and one control group. The test item was administered once by i.v. administration into the tail vein. In each of the two groups, (I) 10 male and 10 female animals were euthanized the day after dosing, (II) 5 male and 5 female recovery animals were kept for an observation period of 2 weeks after dosing to detect possible delayed occurrence or persistence of, or recovery from toxic effects.
(§2) The dose animals' group was injected with 5 mg/kg NODAGA-PSMA I&T in 5% dimethyl sulfoxide (application volume 5 mL/kg) as a vehicle. The control group underwent injection of the vehicle alone (5 mL/kg). The animals were observed daily for signs of toxicity and morbidity/mortality. All animals were sacrificed for necropsy. Blood was taken at the time of necropsies to analyze hematological and clinical biochemistry parameters and urine for urinalysis. The wet weight of a tissue subset was taken, and a set of organs/tissues was preserved. A complete histopathological evaluation of the tissues was performed on treated and control animals.

[3] = Extended single-dose toxicity study (GLP); type: in vivo; details: both sexes, mouse, in vivo, iv, 5 mg/kg; single i.v. dose, CD-1 mice; read-out: no adverse effect level (NOAEL)
Procedure: as §1, §2

[4] = approved PET radiotracers, for comparison; cited from earlier work
[5] = Pharmacokinetics in healthy mice; type: in vivo
Procedure: The pharmacokinetics of the investigated radiopharmaceutical was evaluated in healthy female BALB/c mice from 1 to 24 hours. For the latest time points (12 and 24 hours), NODAGA-PSMA I&T was radiolabeled with ^64Cu obtained from the Tübingen University Hospital. The use of a different PET copper isotope is justified by the longer half-life of ^64Cu (t1/2=12.7 hours), which is more appropriate for tests that include delayed time points. Additionally, using an isotope from the same element ensures that the radiopharmaceutical retains its chemical and physical properties, guaranteeing consistency in the study. Mice were injected i.v. with 4 MBq (200 pmol) of [^61/64Cu]Cu-NODAGA-PSMA I&T diluted to 100 μL with saline solution. The data were combined with the results obtained from the groups of xenografts at 1 and 4 hours post-injection, as the biodistribution in nude mice was the same as in the healthy mice. The results are presented in Table 27 and are expressed as mean±standard deviation.

[6] = molecular target: T1, PSMA (Homo sapiens, UniProt Q04609); assay: Binding affinity (IC50), competition with [^125I]I-BAKuE on LNCaP cells; details: 0.2 nM [^125I]I-BAKuE, 1 hour on ice
T1 construct: endogenous in cells; host or cells: LNCaP
Procedure: The binding affinity of NODAGA-PSMA I&T was determined by measuring IC50 by labelling the precursor with natural copper (^natCu). […] The radioiodinated ((S)-1-carboxy-5-(4-(-^125I-iodo-benzamido) pentyl) carbamoyl)-L-glutamic acid ([^125I]I-BAKuE) was used as reference radioligand. The assay was performed on LNCaP cells, human prostate cancer cells characterized by high expression levels of PSMA.
^natCu-NODAGA-PSMA I&T was produced by dissolving NODAGA-PSMA I&T (0.7 μmol) in 0.30 mL of ammonium acetate (0.5 M, pH 8), followed by the addition of 0.15 mL CuCl2 in 0.05 M hydrochloric acid. The reaction mixture was incubated for 15 min at 95° C. The product was purified from unlabeled ^natCu using a SepPak Classic C18 cartridge (Waters, Eschborn, Germany), washed with water, and eluted with 2 mL methanol. After evaporation of methanol, the product was reconstituted in 0.3 mg/mL 30% (v/v) acetonitrile in water.
The assay was performed on LNCaP cells seeded in 24-well plates. The cells were incubated with increasing concentrations of ^natCu-NODAGA-PSMA I&T (ranging from 0.1 up to 100 nM) in the presence of 0.2 nM [^125]I-BAKuE. After 1 hour of incubation on ice, the unbound (free) [^125I]I-BAKuE was collected by removing the medium (EMEM EBS) and the cells were detached with 1 M sodium hydroxide for counting (bound radioligand). […]

[7] = 5 mg/kg i.v., CD-1 mice, transitory, non-adverse
[8] = 12 hours post-injection (^64Cu)
[9] = 24 hours post-injection (^64Cu)

T1 sequence (Q04609 whole entry): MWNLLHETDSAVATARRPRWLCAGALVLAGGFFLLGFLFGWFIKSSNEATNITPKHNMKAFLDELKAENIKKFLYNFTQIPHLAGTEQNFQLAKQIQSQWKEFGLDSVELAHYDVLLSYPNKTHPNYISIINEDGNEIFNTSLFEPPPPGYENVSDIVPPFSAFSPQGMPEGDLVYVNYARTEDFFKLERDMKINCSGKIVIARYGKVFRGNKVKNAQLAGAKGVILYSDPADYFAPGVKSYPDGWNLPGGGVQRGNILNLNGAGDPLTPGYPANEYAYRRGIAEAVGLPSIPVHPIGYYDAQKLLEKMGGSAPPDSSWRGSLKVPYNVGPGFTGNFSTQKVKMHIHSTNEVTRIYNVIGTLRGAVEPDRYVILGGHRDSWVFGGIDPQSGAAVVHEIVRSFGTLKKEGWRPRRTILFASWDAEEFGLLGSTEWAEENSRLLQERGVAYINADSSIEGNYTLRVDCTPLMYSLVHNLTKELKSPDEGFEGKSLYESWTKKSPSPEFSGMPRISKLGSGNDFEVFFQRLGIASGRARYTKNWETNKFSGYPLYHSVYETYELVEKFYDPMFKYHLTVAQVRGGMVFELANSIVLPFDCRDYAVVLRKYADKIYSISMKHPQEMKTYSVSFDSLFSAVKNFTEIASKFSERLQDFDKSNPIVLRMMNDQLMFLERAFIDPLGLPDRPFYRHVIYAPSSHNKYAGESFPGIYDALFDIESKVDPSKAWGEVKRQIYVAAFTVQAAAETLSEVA

Q: What does the source list for `O=C(O)CC[C@H](NC(=O)N[C@@H](CCCCNC(=O)CCCCCCC(=O)NCCCC[C@@H](NC(=O)[C@@H](Cc1ccccc1)NC(=O)[C@@H](Cc1ccc(O)c(I)c1)NC(=O)CC[C@H](C(=O)O)N1CCN(CC(=O)O)CCN(CC(=O)O)CC1)C(=O)O)C(=O)O)C(=O)O` [NODAGA-PSMA I&T, NODAGA-(I-y) fk (Sub-KuE)]?
A: degradation on storage [1]: no signs of degradation; clinical tolerance ([2]; 5 mg/kg i.v., CD-1 mice): clinically well-tolerated; effects on body weight gain or food consumption ([2]; 5 mg/kg i.v., CD-1 mice): No effects on body weight gain or food consumption were noted; effects on organ weights ([2]; 5 mg/kg i.v., CD-1 mice): No adverse effects on organ weights were noted; macroscopic or microscopic findings ([2]; 5 mg/kg i.v., CD-1 mice): No macroscopic or microscopic findings that could be attributed to treatment; treatment-related mortality or acute adverse effect ([2]; 5 mg/kg i.v., CD-1 mice): no treatment-related mortality or acute adverse effect was registered; glucose level [2, 7]: decrease in glucose level; platelet count [2, 7]: decrease in platelet count; potassium level [2, 7]: increase in potassium level; safety ratio ([2]; versus intended average patient dose 0.4 μg/kg, with dose conversion factor): 1000 times; NOAEL at 2 weeks [3]: 5 mg/kg

Q: With `O=C(O)CC[C@H](NC(=O)N[C@@H](CCCCNC(=O)c1ccc([18F])nc1)C(=O)O)C(=O)O` [Pylarify] as the molecule, how does the Effective Dose [4] read?
A: 0.017 mSv/MBq

Q: With `O=C([O-])CN1CCN(CC(=O)[O-])CCN([C@H](CCC(=O)N[C@H](Cc2ccc(O)c(I)c2)C(=O)N[C@H](Cc2ccccc2)C(=O)N[C@H](CCCCNC(=O)CCCCCCC(=O)NCCCC[C@H](NC(=O)N[C@@H](CCC(=O)O)C(=O)O)C(=O)O)C(=O)O)C(=O)O)CC1.[Cu+2]` [[^61/64Cu]Cu-NODAGA-PSMA I&T] as the molecule, how does the “Biodistribution healthy mice, Adrenal” value ([5]; 1 hour post-injection) read?
A: 14.38 ± 4.39 % AI/g

Q: What about the “Biodistribution healthy mice, Blood” value ([5]; 1 hour post-injection) of the same molecule?
A: 0.33 ± 0.09 % AI/g

Q: What about the “Biodistribution healthy mice, Femur” value ([5]; 1 hour post-injection) of the same molecule?
A: 2.48 ± 0.97 % AI/g

Q: And the “Biodistribution healthy mice, Heart” value ([5]; 1 hour post-injection)?
A: 0.49 ± 0.12 % AI/g

Q: What about the “Biodistribution healthy mice, Intestine” value ([5]; 1 hour post-injection) of the same molecule?
A: 2.11 ± 0.85 % AI/g

Q: What about the “Biodistribution healthy mice, Kidneys” value ([5]; 1 hour post-injection) of the same molecule?
A: 124 ± 21 % AI/g

Q: And the “Biodistribution healthy mice, Liver” value ([5]; 1 hour post-injection)?
A: 1.12 ± 0.25 % AI/g

Q: What about the “Biodistribution healthy mice, Lung” value ([5]; 1 hour post-injection) of the same molecule?
A: 1.49 ± 0.45 % AI/g

Q: And the “Biodistribution healthy mice, Muscles” value ([5]; 1 hour post-injection)?
A: 0.99 ± 0.30 % AI/g

Q: And the “Biodistribution healthy mice, Pancreas” value ([5]; 1 hour post-injection)?
A: 1.37 ± 0.90 % AI/g

Q: What about the “Biodistribution healthy mice, Salivary glands” value ([5]; 1 hour post-injection) of the same molecule?
A: 1.89 ± 0.28 % AI/g

Q: What about the “Biodistribution healthy mice, Spleen” value ([5]; 1 hour post-injection) of the same molecule?
A: 9.33 ± 3.81 % AI/g

Q: What about the “Biodistribution healthy mice, Stomach” value ([5]; 1 hour post-injection) of the same molecule?
A: 1.12 ± 0.15 % AI/g

Q: What about the “Biodistribution healthy mice, Adrenal” value ([5]; 4 hours post-injection) of the same molecule?
A: 7.31 ± 2.76 % AI/g

Q: What about the “Biodistribution healthy mice, Blood” value ([5]; 4 hours post-injection) of the same molecule?
A: 0.11 ± 0.03 % AI/g

Q: And the “Biodistribution healthy mice, Femur” value ([5]; 4 hours post-injection)?
A: 1.34 ± 0.38 % AI/g

Q: And the “Biodistribution healthy mice, Heart” value ([5]; 4 hours post-injection)?
A: 0.25 ± 0.06 % AI/g

Q: And the “Biodistribution healthy mice, Intestine” value ([5]; 4 hours post-injection)?
A: 1.12 ± 0.48 % AI/g

Q: What about the “Biodistribution healthy mice, Kidneys” value ([5]; 4 hours post-injection) of the same molecule?
A: 94 ± 12 % AI/g

Q: And the “Biodistribution healthy mice, Liver” value ([5]; 4 hours post-injection)?
A: 0.88 ± 0.25 % AI/g

Q: And the “Biodistribution healthy mice, Lung” value ([5]; 4 hours post-injection)?
A: 0.68 ± 0.22 % AI/g

Q: What about the “Biodistribution healthy mice, Muscles” value ([5]; 4 hours post-injection) of the same molecule?
A: 0.45 ± 0.18 % AI/g

Q: And the “Biodistribution healthy mice, Pancreas” value ([5]; 4 hours post-injection)?
A: 0.55 ± 0.16 % AI/g

Q: What about the “Biodistribution healthy mice, Salivary glands” value ([5]; 4 hours post-injection) of the same molecule?
A: 0.58 ± 0.12 % AI/g

Q: And the “Biodistribution healthy mice, Spleen” value ([5]; 4 hours post-injection)?
A: 2.35 ± 1.45 % AI/g

Q: What about the “Biodistribution healthy mice, Stomach” value ([5]; 4 hours post-injection) of the same molecule?
A: 0.72 ± 0.15 % AI/g

Q: And the “Biodistribution healthy mice, Adrenal” value [5, 8]?
A: 2.99 ± 0.93 % AI/g

Q: And the “Biodistribution healthy mice, Blood” value [5, 8]?
A: 0.11 ± 0.01 % AI/g

Q: And the “Biodistribution healthy mice, Femur” value [5, 8]?
A: 0.50 ± 0.10 % AI/g

Q: What about the “Biodistribution healthy mice, Heart” value [5, 8] of the same molecule?
A: 0.26 ± 0.05 % AI/g

Q: And the “Biodistribution healthy mice, Intestine” value [5, 8]?
A: 0.94 ± 0.41 % AI/g

Q: And the “Biodistribution healthy mice, Kidneys” value [5, 8]?
A: 60 ± 9 % AI/g

Q: What about the “Biodistribution healthy mice, Liver” value [5, 8] of the same molecule?
A: 0.96 ± 0.18 % AI/g

Q: And the “Biodistribution healthy mice, Lung” value [5, 8]?
A: 0.52 ± 0.11 % AI/g

Q: What about the “Biodistribution healthy mice, Muscles” value [5, 8] of the same molecule?
A: 0.25 ± 0.05 % AI/g

Q: What about the “Biodistribution healthy mice, Pancreas” value [5, 8] of the same molecule?
A: 0.28 ± 0.04 % AI/g

Q: And the “Biodistribution healthy mice, Salivary glands” value [5, 8]?
A: 0.39 ± 0.05 % AI/g

Q: What about the “Biodistribution healthy mice, Spleen” value [5, 8] of the same molecule?
A: 1.40 ± 0.57 % AI/g

Q: And the “Biodistribution healthy mice, Stomach” value [5, 8]?
A: 0.52 ± 0.03 % AI/g

Q: What about the “accumulated activity in the kidneys” value ([5]; 24 hours post-injection) of the same molecule?
A: < 20 % IA/g

Q: What about the “Biodistribution healthy mice, Adrenal” value [5, 9] of the same molecule?
A: 1.17 ± 0.22 % AI/g

Q: And the “Biodistribution healthy mice, Blood” value [5, 9]?
A: 0.08 ± 0.01 % AI/g

Q: And the “Biodistribution healthy mice, Femur” value [5, 9]?
A: 0.20 ± 0.05 % AI/g

Q: And the “Biodistribution healthy mice, Heart” value [5, 9]?
A: 0.21 ± 0.02 % AI/g

Q: What about the “Biodistribution healthy mice, Intestine” value [5, 9] of the same molecule?
A: 0.46 ± 0.11 % AI/g

Q: And the “Biodistribution healthy mice, Kidneys” value [5, 9]?
A: 16.1 ± 4.9 % AI/g

Q: What about the “Biodistribution healthy mice, Liver” value [5, 9] of the same molecule?
A: 0.84 ± 0.11 % AI/g

Q: And the “Biodistribution healthy mice, Lung” value [5, 9]?
A: 0.32 ± 0.12 % AI/g

Q: And the “Biodistribution healthy mice, Muscles” value [5, 9]?
A: 0.08 ± 0.02 % AI/g

Q: And the “Biodistribution healthy mice, Pancreas” value [5, 9]?
A: 0.17 ± 0.03 % AI/g

Q: What about the “Biodistribution healthy mice, Salivary glands” value [5, 9] of the same molecule?
A: 0.22 ± 0.05 % AI/g

Q: What about the “Biodistribution healthy mice, Spleen” value [5, 9] of the same molecule?
A: 0.58 ± 0.15 % AI/g

Q: What about the “Biodistribution healthy mice, Stomach” value [5, 9] of the same molecule?
A: 0.31 ± 0.05 % AI/g

Q: With `O=C([O-])CN(CCN(CC(=O)[O-])Cc1cc(CCC(=O)NCCCCCC(=O)NCCCC[C@H](NC(=O)N[C@@H](CCC(=O)O)C(=O)O)C(=O)O)ccc1[O-])Cc1cc(CCC(=O)O)ccc1[O-].[68Ga+3].[OH3+]` [[^68Ga]Ga-PSMA-11] as the molecule, how does the Effective Dose [4] read?
A: 0.023 mSv/MBq

Q: With `O=C(O)CC[C@H](NC(=O)N[C@@H](CCCCNC(=O)CCCCCCC(=O)NCCCC[C@@H](NC(=O)[C@@H](Cc1ccccc1)NC(=O)[C@@H](Cc1ccc(O)c(I)c1)NC(=O)CC[C@H](C(=O)O)N1CCN2CCN(CC1)CC(=O)[O][Cu][O]C(=O)C2)C(=O)O)C(=O)O)C(=O)O` [^natCu-NODAGA-PSMA I&T] as the molecule, how does the IC50 [6] read?
A: 9.3 ± 1.8 nM
